Results: patent EP0108147B1, “Use of a protoberberine alkaloid and composition containing same” (MAROKO, Peter R., priority 1982, dated 1983)

How the values were obtained:
canine = assay: Effect of berberine after intravenous propanolol, 12 canine experiments; type: in vivo; conditions: intravenous propanolol (1 mg/kg)
Description: The mechanism of berberine is dissimilar to that of beta-adrenergic agonists, which while increasing contractility, increase heart rate also. […] Berberine differs also from digitalis because it reduces peripheral resistance in the non-failing heart.

[1] = Microneucleus test with Ames test on urine for mutagenic potential
[2] = system: patient with cardiomyopathy; assay: Berberine in one patient with cardiomyopathy in irreversible cardiogenic shock; type: in vivo
Protocol: In the last two hours before berberine it was not measurable. […] Stroke volume was 20 ml and then 36 and then 36 ml.

dogs [3] = assay: Protocol RK: systemic arterial pressure and heart rate, pressure not held constant, two doses; type: in vivo
Description: The protocol was the same as described above except that in these dogs, contrary to the previously reported series, the systolic arterial pressure was not maintained constant. Also, the dogs were instrumented only with an electrocardiogram (with lead aVF being constantly recorded), and polyethylene cannula in aorta introduced through the carotid artery to measure aortic pressures, and another cannula in the jugular vein for drug administration. Average heart rate (measured by continuously monitored electrocardiographic lead aVF) was reduced from 146 ± 4 (mean ± 1 S.E.M.) to […] (p <0.1) after the first 45 minutes. After the second 45 minutes heart beat rate was further reduced to […] (p <0.01 ).

trained conscious dogs = assay: Protocol F: multiple gated radionuclide ventriculography (MUGR), ejection fraction in conscious dogs without failing heart; type: in vivo
Protocol: To determine further the effects of berberine on patients, experiments were carried out on conscious dogs (Protocol F) and the measurement of left ventricular performance was assessed atraumatically using the multiple gated radionuclide ventriculography (MUGR) similarly to what is done in patients. The multiple gated radionuclide ventriculography is used in patients to assess their cardiac (i.e. left ventricular) performance by analyzing in an. atraumatic manner, the ejection fraction (EF) of the left ventricle. This technique substituted the analysis of ejection fraction by contrast angiography since the latter can be done only in the catheterization laboratory with the patient submitted to the introduction of catheters into his arteries and left ventricular cavity as well as an injection of a radio-opaque dye. MUGR consists in using red blood cells labelled with stannous radioactive technetium. These red blod cells can be labelled either in vivo or in vitro prior to injection. The blood that is now emitting gamma radiation can be detected by an external gamma camera. This device can sum many cycles of the heart beat obtaining an average cycle. Then this cycle is divided in time intervals so that, as an example, the end systolic and the end diastolic frames can be identified. Ejection fraction is the end distolic minus the end systolic volumes divided by the end diastolic volume. It indicates therefore the pumping effectiveness of the left ventricle since it measures the fraction (or the percent if multiplied by 100) of the volume of blood that is expelled from the left ventricular cavity. Experiments were carried out in trained conscious dogs. 14.8.108 Bg (40 mCi) of […] used to label red blood cells that were then injected intravenously. […] The images were acquired using fixed density of the left ventricle. They were measured in quadruplicate and averaged. The external gamma camera used was Ohio Nuclear (model VIP 560).

[4] = system: dogs with acute left ventricular failure; assay: MUGR ejection fraction in dogs with acute left ventricular failure after coronary embolization; type: in vivo; conditions: another dog, 0.2 mg/Kg/min
LD50 = conditions: cat, in vivo
NaK-ATPase = conditions: Cohen et al., Biochem. Pharmacol. 27: 2555-2558, 1978; cited from earlier work
dogs [5] = assay: Three week toxicology study in 12 dogs; type: in vivo; conditions: 0.2 mg/kg/min for 60 minutes twice daily for 3 weeks
LD50, intravenous bolus = conditions: rat, in vivo
dogs [6] = assay: Arrhythmias produced by intravenous infusion of aconitine; type: in vivo
Protocol: To examine the effects of berberine on arrhythmias produced by intravenous infusion of aconitine in fifteen dogs after development of VEA, of at least 50% of the beats or more, the dogs were given berberine intravenously as a bolus (1-5 mg/Kg) or 5% dextrose in water.

Solubility = type: physicochemical
Protocol: The solubility of berberine and other similar compounds of the invention may be altered by changing the pH of the solution having each compound its optimum of pH as far as solubility.
The protoberine alkaloids are administered in the manner most appropriate under the circumstances. Administration may be oral, sublingual, subcutaneous, transdermal or intramuscular injection. The compounds may be administered by intravenous route, parenterally.

[7] = system: chronically instrumented conscious dogs; assay: Oral administration in chronically instrumented conscious dogs; type: in vivo
[8] = second dog (Figure VI), after 15 minutes

For `COc1ccc2cc3[n+](cc2c1OC)CCc1cc2c(cc1-3)OCO2` [berberine], the “effect on contractility, arterial pressure or heart rate after beta blockade” value (canine) was “did not change the effect of berberine”, the mutagenic potential [1] was “negative” and the cardiac output ([2]; 0.2 and 0.4 mg/kg/min, after 30 minutes, from 1.2) was 3.5 L/min. The “increase of cardiac output” value ([2]; after 30 minutes) was 192%, the cardiac output ([2]; after 90 minutes) was 2.2 L/min and the “increase of cardiac output” value ([2]; after 90 minutes) was 82%. It also gave a Stroke volume ([2]; first value after berberine, from 20 ml) of 36 mL, a Stroke volume ([2]; second value after berberine) of 36 mL and a mean pressure (dogs [3]; after 90 minutes, from 114 ± 7) of 96 ± 5 mmHg. For the same compound, the “pulse pressure (systolic minus diastolic pressure)” value (dogs [3]; end of the experiment, from an average of 28) was 35 mmHg, the “Mean systemic arterial pressure” value (dogs [3]; first dose, 5 minutes, from 114 ± 7) was 87 ± 5 mmHg and the “Mean systemic arterial pressure” value (dogs [3]; first dose, 10 minutes) was 93 ± 4 mmHg. The “Mean systemic arterial pressure” value (dogs [3]; first dose, 15 minutes) was 92 ± 5 mmHg, the “Mean systemic arterial pressure” value (dogs [3]; first dose, 30 minutes) was 101 ± 7 mmHg and the “Mean systemic arterial pressure” value (dogs [3]; first dose, 45 minutes) was 101 ± 7 mmHg. For the same compound, the “Mean systemic arterial pressure” value (dogs [3]; second dose, 5 minutes) was 94 ± 4 mmHg, the “Mean systemic arterial pressure” value (dogs [3]; second dose, 10 minutes) was 95 ± 6 mmHg and the “Mean systemic arterial pressure” value (dogs [3]; second dose, 15 minutes) was 95 ± 5 mmHg. For the same compound, the “Mean systemic arterial pressure” value (dogs [3]; second dose, 30 minutes) was 97 ± 5 mmHg, the “Mean systemic arterial pressure” value (dogs [3]; second dose, 45 minutes) was 97 ± 5 mmHg and the “ejection fraction (EF), average” value (trained conscious dogs; one dog, after first infusion) was 44 ± 2%. The “ejection fraction (EF), average” value (trained conscious dogs; one dog, after second infusion) was 40 ± 2%, the “increase of EF versus the pre-berberine period” value (trained conscious dogs; one dog, first infusion) was 33% and the “ejection fraction (EF)” value (trained conscious dogs; one dog, first infusion 0.7 mg/Kg/min 5 minutes, 1st reading (5 min), pre-berberine 33 ± 2) was 46%. For the same compound, the “ejection fraction (EF)” value (trained conscious dogs; one dog, first infusion, 2nd reading (15 min)) was 47%, the “ejection fraction (EF)” value (trained conscious dogs; one dog, first infusion, 3rd reading (30 min)) was 44% and the “ejection fraction (EF)” value (trained conscious dogs; one dog, first infusion, 4th reading (45 min)) was 38%. For the same compound, the “ejection fraction (EF)” value (trained conscious dogs; one dog, second infusion, 1st reading) was 46%, the “ejection fraction (EF)” value (trained conscious dogs; one dog, second infusion, 2nd reading) was 37% and the “ejection fraction (EF)” value (trained conscious dogs; one dog, second infusion, 3rd reading) was 40%. For the same compound, the “ejection fraction (EF)” value (trained conscious dogs; one dog, second infusion, 4th reading) was 38%, the ejection fraction (trained conscious dogs; second dog (Figure VI), 0.7 mg/Kg/min for 15 minutes, 1st reading, from 50) was 54% and the ejection fraction (trained conscious dogs; second dog (Figure VI), 2nd reading) was 65%. For the same compound, the ejection fraction (trained conscious dogs; [8]) was 70%, the “increase of ejection fraction” value (trained conscious dogs; [8]) was 40% and the EF ([4]; at 20) was 55%. The EF ([4]; at 30) was 55%, the LD50 (LD50) was about 55 mg/kg and the “inhibition of NaK-ATPase activity” value (NaK-ATPase) was “inactive”. The “side effects (electrolytes, heptatic function, renal function, proteins, coagulation, blood cells, platelet count)” value (dogs [5]) was “no side effects were observed”, the tissues at post-mortem (dogs [5]) was “normal histologically” and the LD50 (LD50, intravenous bolus) was about 55 mg/kg. The “dogs with regression of the arrhythmias to normal sinus or supraventricular rhythm” value (dogs [6]; intravenous bolus 1-5 mg/Kg after VEA of at least 50% of the beats, controls 20%) was 78%, the ventricular fibrillation (dogs [6]; two cases) was “ventricular fibrillation reverted to normal sinus rhythm” and the “solubility as a function of pH” value (Solubility) was “increases when pH is lowered towards acidity”. For the same compound, the “solubility in sugar solutions” value (Solubility) was “soluble (among others) in sugar solutions”.

In the case of `COc1cc2c(cc1O)C[C@H]1c3cc(O)c(OC)cc3CCN1C2` [coreximine], the “oral effects compared with berberine” value ([7]; dog, in vivo, po) is reported as “more marked than those of berberine” and the “increase of LV dP/dt” value ([7]; oral 5 mg/kg twice daily, after the first day) is reported as 25%.
